Laboratory results reported in patent US20230399319A1, “Acylsulfamide Compound and Pharmaceutical Use Therefor” (Japan Tobacco Inc., priority 2019, published 2023).
Read-outs that look alike come from different tables or passages of the source.

Target: NLRP3 inflammasome (Homo sapiens (Human), UniProt Q96P20)
Experiment: Evaluation of NLRP3 inflammasome inhibitory activity (inhibition of IL-1β production in THP1-Null cells, LPS/Nigericin)
Conditions: for inhibition at 3 µM: read-out: % inhibition at 3 μM
[1] = inhibition of IL-1β production in THP1-Null cells
[2] = IL-1β production in THP1-Null cells, PMA/LPS primed, Nigericin 7.5 μmol/L

Chain of NLRP3 inflammasome (Q96P20 whole entry): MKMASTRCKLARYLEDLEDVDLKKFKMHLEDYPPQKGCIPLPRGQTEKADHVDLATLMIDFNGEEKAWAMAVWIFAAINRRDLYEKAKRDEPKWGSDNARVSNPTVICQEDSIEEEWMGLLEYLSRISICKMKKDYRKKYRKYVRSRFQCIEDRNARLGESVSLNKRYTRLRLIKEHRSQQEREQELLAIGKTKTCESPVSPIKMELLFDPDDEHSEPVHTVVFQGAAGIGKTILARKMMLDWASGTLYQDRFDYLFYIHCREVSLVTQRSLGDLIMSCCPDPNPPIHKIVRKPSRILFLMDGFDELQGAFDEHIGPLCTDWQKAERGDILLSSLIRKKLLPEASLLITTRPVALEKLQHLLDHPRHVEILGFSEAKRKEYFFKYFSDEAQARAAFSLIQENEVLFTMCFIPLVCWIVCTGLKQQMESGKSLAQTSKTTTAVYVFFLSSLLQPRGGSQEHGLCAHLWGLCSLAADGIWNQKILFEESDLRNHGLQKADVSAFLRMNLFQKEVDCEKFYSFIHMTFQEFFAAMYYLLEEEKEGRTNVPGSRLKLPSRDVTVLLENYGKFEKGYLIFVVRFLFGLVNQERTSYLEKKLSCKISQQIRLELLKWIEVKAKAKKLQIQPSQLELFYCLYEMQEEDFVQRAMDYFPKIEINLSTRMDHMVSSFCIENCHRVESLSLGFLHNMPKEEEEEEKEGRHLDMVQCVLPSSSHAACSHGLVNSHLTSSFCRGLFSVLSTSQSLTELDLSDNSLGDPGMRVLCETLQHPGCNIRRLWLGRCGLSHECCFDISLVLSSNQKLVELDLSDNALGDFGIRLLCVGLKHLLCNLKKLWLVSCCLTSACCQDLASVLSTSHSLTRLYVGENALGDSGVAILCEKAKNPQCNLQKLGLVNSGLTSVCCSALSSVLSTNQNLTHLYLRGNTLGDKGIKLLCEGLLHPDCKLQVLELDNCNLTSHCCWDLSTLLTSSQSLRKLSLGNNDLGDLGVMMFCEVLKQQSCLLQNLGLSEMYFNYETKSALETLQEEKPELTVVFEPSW

Structure (SMILES) | IC50 [nM] | IC50 [1] [nM] | further results
COC1COCCN(S(=O)(=O)NC(=O)c2coc(Nc3cc(C(F)F)ccc3C)n2)C1 (racemic) [Example 2-331] | 59 |  | 
COC1CCN(S(=O)(=O)NC(=O)c2coc(Nc3cc(C(F)(F)F)ccc3C)n2)CC1 [Example 2-158] |  | 100 | 
CCCCS(=O)(=O)N1CCCN(S(=O)(=O)NC(=O)c2coc(Nc3cc(C)ccc3C)n2)CC1 [Example 2-203] |  | 18 | 
Cc1ccc(C(C)C)cc1Nc1nc(C(=O)NS(=O)(=O)N2CCOCC2(C)C)co1 [Example 2-098] |  | 250 | 
Cc1ccc(C(C)C)cc1Nc1nc(C(=O)NS(=O)(=O)N2CCOCC2C)co1 (racemic) [Example 2-081] | 94 |  | 
Cc1ccc(C(F)(F)F)cc1Nc1nc(C(=O)NS(=O)(=O)N2CCOCC2C)co1 (racemic) [Example 2-005] | 30 |  | 
CC(C)N(C)S(=O)(=O)NC(=O)c1cnc(Nc2c3c(cc4c2CCC4)CCC3)o1 [Example 15] |  |  | IC50 [2]: < 30 nM
Cc1ncc(C(F)(F)F)cc1Nc1nc(C(=O)NS(=O)(=O)N2CCCOCC2)co1 [Example 2-104] |  | 1800 | 
CCc1ccc(C(F)(F)F)cc1Nc1nc(C(=O)NS(=O)(=O)N2CCCOCC2)co1 [Example 2-059] |  | < 30 | 
Cc1ccc(C(F)(F)F)cc1Nc1nc(C(=O)NS(=O)(=O)N2CCCOC(C)C2)co1 (racemic) [Example 2-230] | 89 |  | 
O=C(NS(=O)(=O)N1CCCn2nccc21)c1coc(Nc2c3c(c(Cl)c4c2CCC4)CCC3)n1 [Example 46] |  |  | IC50 [2]: 350 nM
O=C(NS(=O)(=O)N1CCOCC1)c1coc(Nc2c3c(c(F)c4c2CCC4)CCC3)n1 [Example 53] |  |  | IC50 [2]: < 30 nM
COC1CN(S(=O)(=O)NC(=O)c2cnc(Nc3c4c(cc5c3CCC5)CCC4)o2)C1 [Example 17] |  |  | IC50 [2]: 830 nM
CS(=O)(=O)N1CCN(S(=O)(=O)NC(=O)c2coc(Nc3c4c(c(Cl)c5c3CCC5)CCC4)n2)CC1 [Example 55] |  |  | IC50 [2]: 160 nM
COCCN(C(C)C)S(=O)(=O)NC(=O)c1coc(Nc2c3c(c(Cl)c4c2CCC4)CCC3)n1 [Example 39] |  |  | IC50 [2]: 220 nM
COC1CN(S(=O)(=O)CCCF)CCN(S(=O)(=O)NC(=O)c2coc(Nc3cc(C(F)(F)F)ccc3C)n2)C1 (racemic) [Example 2-205] | 36 |  | 
COC1CN(S(=O)(=O)NC(=O)c2cnc(Nc3c4c(cc5c3CCC5)CCC4)o2)C1Cl (racemic) [Example 12] | 4000 |  | 
CC(C)c1ccc(C(F)(F)F)c(Nc2nc(C(=O)NS(=O)(=O)N3CCCOCC3)co2)c1 [Example 2-176] |  | 18000 | 
CCCS(=O)(=O)N1CCCN(S(=O)(=O)NC(=O)c2coc(Nc3cc(CC)ccc3CC)n2)CC1 [Example 2-258] |  | 18 | 
CCCS(=O)(=O)N1CCCN(S(=O)(=O)NC(=O)c2coc(Nc3cc(C)cc(C)c3C)n2)CC1 [Example 2-288] |  | 120 | 
CCCCS(=O)(=O)N1CCN(S(=O)(=O)NC(=O)c2coc(Nc3cc(C(F)(F)F)ccc3C)n2)CC(F)C1 (racemic) [Example 2-197] | 17 |  | 
Cc1ccc(C(F)(F)F)cc1Nc1nc(C(=O)NS(=O)(=O)N2CCCOCC2)cs1 [Example 2-066] |  | < 30 | 
Cc1ccc(C(F)(F)F)cc1Nc1nc(C(=O)NS(=O)(=O)N2CCOC(C#N)CC2)co1 (stereo not shown) [Example 2-264] |  | 38 | 
COCC1CN(S(=O)(=O)NC(=O)c2coc(Nc3c(C(C)C)ccc4c3CCC4)n2)CCO1 (racemic) [Example 2-120] | 160 |  | 
CCCS(=O)(=O)C1CCCN(S(=O)(=O)NC(=O)c2coc(Nc3cc(C(F)(F)F)ccc3C)n2)CC1 (stereo not shown) [Example 2-306] | 9.8 |  | 
CC(C)c1cn(C(C)C)nc1Nc1nc(C(=O)NS(=O)(=O)N(C)C(C)C)co1 [Example 2-138] |  | 92 | 

Structure (SMILES) | IC50 [nM] | IC50 [1] [nM] | further results
Cc1ccc(C(F)(F)F)cc1Nc1nc(C(=O)NS(=O)(=O)N2CCCN(S(=O)(=O)C3CCOC3)CC2)co1 (racemic) [Example 2-220] | 67 |  | 
Cc1ccc(C(F)(F)F)cc1Nc1nc(C(=O)NS(=O)(=O)N2CCC(S(=O)(=O)N(C)C)CC2)co1 [Example 75] |  |  | IC50 [2]: 32 nM
Cc1ccc(C(C)(F)F)cc1Nc1nc(C(=O)NS(=O)(=O)N2CCOCC2)co1 [Example 2-015] |  | 38 | 
CC1COCCN1S(=O)(=O)NC(=O)c1cnc(Nc2c3c(cc4c2CCC4)CCC3)o1 (racemic) [Example 5] | < 30 |  | 
COCC1CCN(S(=O)(=O)NC(=O)c2coc(Nc3cc(C(F)F)ccc3C)n2)CCO1 (stereo not shown) [Example 2-327] |  | 29 | 
Cc1ccc(C(F)(F)F)cc1Nc1nc(C(=O)NS(=O)(=O)N2CCOC(CO)CC2)co1 (stereo not shown) [Example 2-272] |  | 27 | 
O=C(NS(=O)(=O)N1C[C@H]2COC[C@H]2C1)c1coc(Nc2c3c(c(F)c4c2CCC4)CCC3)n1 [Example 60] |  |  | IC50 [2]: 130 nM
Cc1ccc(Br)cc1Nc1nc(C(=O)NS(=O)(=O)N2CCCOCC2)co1 [Example 2-140] |  | 74 | 
COC(=O)CC1COCCN1S(=O)(=O)NC(=O)c1coc(Nc2c3c(c(Cl)c4c2CCC4)CCC3)n1 (racemic) [Example 73] | 160 |  | 
COCC1CCN(S(=O)(=O)NC(=O)c2coc(Nc3cc(C(C)C)ccc3C)n2)CCO1 (stereo not shown) [Example 2-295] |  | 30 | 
CCCS(=O)(=O)N1CCCN(S(=O)(=O)NC(=O)c2coc(Nc3cc(C)ccc3C)n2)CC1 [Example 2-228] |  | 28 | 
Cc1ccc(C(F)(F)F)cc1Nc1nc(C(=O)NS(=O)(=O)N2CCCN(c3ccncn3)CC2)co1 [Example 2-214] |  | 89 | 
COC1COCCN(S(=O)(=O)NC(=O)c2coc(Nc3cc(C(F)(F)F)ccc3C)n2)C1 (single isomer, unassigned) [Example 2-218] |  | 72 | 
CCS(=O)(=O)N1CCN(S(=O)(=O)NC(=O)c2coc(Nc3cc(C)ccc3C)n2)CC(OC)C1 (racemic) [Example 2-252] | 190 |  | 
Cc1ccc(C(F)(F)F)cc1Nc1nc(C(=O)NS(=O)(=O)N2CCOCC2CO)co1 (racemic) [Example 2-045] | 180 |  | 
Cc1ccc(C2CC2)cc1Nc1nc(C(=O)NS(=O)(=O)N2CCOCC2)co1 [Example 2-001] |  | 63 | 
CCCS(=O)(=O)N1CCCN(S(=O)(=O)NC(=O)c2coc(Nc3cc(C(F)F)ccc3C(C)C)n2)CC1 [Example 2-224] |  | 27 | 
Cc1ccc(C(F)(F)F)cc1Nc1nc(C(=O)NS(=O)(=O)N2CCCC(C(=O)N(C)C)CC2)co1 (racemic) [Example 2-157] | 38 |  | 
CCCS(=O)(=O)N1CCCN(S(=O)(=O)NC(=O)c2coc(Nc3cc(C(F)F)ccc3C)n2)CC1 [Example 2-270] |  | 9.8 | 
Cc1ccc2c(c1Nc1nc(C(=O)NS(=O)(=O)N3CCOCC3)cs1)CCC2 [Example 2-084] |  | 140 | 
O=C(NS(=O)(=O)N1CCCC1C(F)(F)F)c1coc(Nc2c3c(c(Cl)c4c2CCC4)CCC3)n1 (racemic) [Example 40] | 930 |  | 
Cc1ccc2c(c1Nc1nc(C(=O)NS(=O)(=O)N3CCCOCC3)cs1)CCC2 [Example 2-085] |  | 120 | 
Cc1cn(CC(C)C)nc1Nc1nc(C(=O)NS(=O)(=O)N2CCCOCC2)co1 [Example 2-189] |  |  | inhibition at 3 µM: 16%
CC(C)Cc1nn(C(C)C)cc1Nc1nc(C(=O)NS(=O)(=O)N2CCCOCC2)co1 [Example 2-180] |  |  | inhibition at 3 µM: -3%
CCCS(=O)(=O)N1CCCN(S(=O)(=O)NC(=O)c2coc(Nc3ccccc3C)n2)CC1 [Example 2-269] |  | 350 | 
Cc1cc(C#N)c(C(F)(F)F)cc1Nc1nc(C(=O)NS(=O)(=O)N2CCCOCC2)co1 [Example 2-142] |  | 6300 | 
